Values of other authors, collected in US20130053433A1, “FATTY ACID DERIVATIVES AND ANALOGS OF DRUGS” (The University of North Carolina at Chapel Hill, priority 2010, published 2013).

Target: albumin (Homo sapiens, UniProt P02768)
Sequence (P02768 25-609): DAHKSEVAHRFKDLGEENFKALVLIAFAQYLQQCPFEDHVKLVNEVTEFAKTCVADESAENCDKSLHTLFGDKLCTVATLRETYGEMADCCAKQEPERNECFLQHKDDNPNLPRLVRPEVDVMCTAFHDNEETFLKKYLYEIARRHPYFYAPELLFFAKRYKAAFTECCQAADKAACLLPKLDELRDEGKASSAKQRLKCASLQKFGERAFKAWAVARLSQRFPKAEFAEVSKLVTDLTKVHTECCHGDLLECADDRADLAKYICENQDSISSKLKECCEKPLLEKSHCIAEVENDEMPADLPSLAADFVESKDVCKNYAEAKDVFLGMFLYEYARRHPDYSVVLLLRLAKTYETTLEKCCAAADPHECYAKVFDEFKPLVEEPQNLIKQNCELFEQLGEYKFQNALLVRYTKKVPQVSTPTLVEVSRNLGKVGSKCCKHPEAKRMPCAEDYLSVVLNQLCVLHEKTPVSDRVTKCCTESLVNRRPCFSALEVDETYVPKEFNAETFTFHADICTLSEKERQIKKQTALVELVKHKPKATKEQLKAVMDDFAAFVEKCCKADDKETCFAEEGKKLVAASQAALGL

| Kd for albumin (depending on total fatty acid concentration, Curry, Brick et al. 1999) | Kd (read-out: dissociation constant Kd for albumin, Paal, Muller et al. 2001) [µM] | SMILES |
| --- | --- | --- |
| in the range of μM to nM |  | CCCCCCCCCCCCCCCCCC(=O)O [stearic acid] |
|  | ~10 | CC(=O)O[C@H]1C(=O)[C@@]2(C)[C@H]([C@H](OC(=O)c3ccccc3)[C@]3(O)C[C@H](OC(=O)[C@H](O)[C@@H](NC(=O)c4ccccc4)c4ccccc4)C(C)=C1C3(C)C)[C@]1(OC(C)=O)CO[C@@H]1C[C@@H]2O [PTX, paclitaxel] |
